Measured values: ChEMBL document CHEMBL5230117, “Chalcones: Unearthing their therapeutic possibility as monoamine oxidase B inhibitors” (Eur J Med Chem, 2020)

Key:
[1] = molecular target: T1, Amine oxidase [flavin-containing] B (Homo sapiens, UniProt P27338); experiment: Inhibition of human MAO-B using benzylamine as substrate
T1 sequence (P27338 whole entry): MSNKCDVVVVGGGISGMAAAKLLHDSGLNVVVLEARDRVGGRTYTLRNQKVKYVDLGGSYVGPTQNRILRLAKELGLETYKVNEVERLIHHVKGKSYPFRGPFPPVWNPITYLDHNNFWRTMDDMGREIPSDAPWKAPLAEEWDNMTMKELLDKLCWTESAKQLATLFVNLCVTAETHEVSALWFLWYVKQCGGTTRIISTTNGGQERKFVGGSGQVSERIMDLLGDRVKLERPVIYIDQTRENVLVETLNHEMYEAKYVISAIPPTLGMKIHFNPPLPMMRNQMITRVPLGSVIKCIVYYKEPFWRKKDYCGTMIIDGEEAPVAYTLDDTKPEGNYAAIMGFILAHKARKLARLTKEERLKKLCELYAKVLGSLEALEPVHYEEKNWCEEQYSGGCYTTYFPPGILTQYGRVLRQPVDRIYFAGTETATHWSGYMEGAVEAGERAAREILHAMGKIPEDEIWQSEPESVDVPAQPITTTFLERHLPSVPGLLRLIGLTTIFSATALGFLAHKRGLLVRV

[2] = molecular target: T1, Amine oxidase [flavin-containing] B; experiment: Inhibition of human MAO-B by fluorescence spectrophotometry assay
[3] = molecular target: T1, Amine oxidase [flavin-containing] B; experiment: Inhibition of human MAO-B using kynuramine as substrate incubated for 20 mins by fluorescence based assay
Homo sapiens = organism: Homo sapiens; experiment: Selectivity index, ratio of IC50 for human MAO-A to IC50 for human MAO-B
[4] = molecular target: T1, Amine oxidase [flavin-containing] B; experiment: Inhibition of human MAO-B using kynuramine as substrate incubated for 20 mins by fluorescence spectrophotometry assay
[5] = molecular target: T1, Amine oxidase [flavin-containing] B; experiment: Inhibition of human MAO-B
[6] = molecular target: T1, Amine oxidase [flavin-containing] B; experiment: Inhibition of human MAO-B at 50 uM using benzylamine as substrate incubated for 30 mins by absorbance based analysis relative to control; conditions: 0.5 h

**Q.** How did the IC50 [1] turn out when `CCOc1ccc(C(=O)/C=C/c2ccc(O)cc2)cc1` was run?
**A.** The IC50 was 210 nM.

**Q.** Which IC50 [2] does the source give for `O=C(CCc1cn(Cc2ccc3oc(-c4ccc(Cl)cc4)cc(=O)c3c2)nn1)Nc1ccccc1` here?
**A.** The IC50 was 32900 nM.

**Q.** How did the IC50 [3] turn out when `COc1ccc2c(=O)cc(-n3cnc4ccccc43)oc2c1` was run?
**A.** Its IC50 is 270 nM.

**Q.** And the Ratio IC50 (Homo sapiens)?
**A.** Its Ratio IC50 is greater than 300.

**Q.** How did the IC50 [3] turn out when `COc1ccc2c(c1)O/C(=C\c1cc3ccccc3[nH]1)C2=O` was run?
**A.** The IC50 was 2.6 nM.

**Q.** `O=C(CCCCc1cn(Cc2ccc3oc(-c4ccccc4)cc(=O)c3c2)nn1)Nc1ccccc1` was tested. Which IC50 [2] did it give?
**A.** The IC50 was 15600 nM.

**Q.** What does the source list for `COc1ccc2c(=O)cc(-n3cncn3)oc2c1`?
**A.** IC50 [3]: 19 nM; Ratio IC50 (Homo sapiens): 8

**Q.** How did the IC50 [4] turn out when `O=C1/C(=C/c2ccccc2)CCc2ccccc21` was run?
**A.** The IC50 was 115 nM.

**Q.** Which Ratio IC50 (Homo sapiens) does the source give for `O=C(/C=C/c1cccc(F)c1)c1ccc(N2CCOCC2)cc1` here?
**A.** The Ratio IC50 was 517.

**Q.** And the IC50 [1]?
**A.** Its IC50 is greater than 87 nM.

**Q.** With `COc1ccc2c(c1)C/C(=C\c1cccnc1)C2=O` as the compound, how does the IC50 [3] read?
**A.** The IC50 was less than 500 nM.

**Q.** With `O=C(/C=C/c1ccc(Cl)cc1)c1ccccc1` [4-CHLORO CHALCONE] as the compound, how does the IC50 [4] read?
**A.** Its IC50 is 964 nM.

**Q.** What about the Ratio IC50 (Homo sapiens) of the same compound?
**A.** Its Ratio IC50 is 56.

**Q.** With `O=C(/C=C/c1cccc2c1OCO2)c1cccc(Cl)c1` as the compound, how does the IC50 [5] read?
**A.** The IC50 was less than 100 nM.

**Q.** Which IC50 [2] does the source give for `O=C(CCc1cn(Cc2ccc3oc(-c4ccccc4)cc(=O)c3c2)nn1)Nc1ccc(F)cc1` here?
**A.** Its IC50 is 15600 nM.

**Q.** `COc1ccc2c(c1)C(=O)/C(=C/c1ccccc1)CC2` was tested. Which IC50 [4] did it give?
**A.** Its IC50 is 115 nM.

**Q.** `O=C(NCc1cnnn1Cc1ccc2oc(-c3ccc(Cl)cc3)cc(=O)c2c1)c1ccccc1` was tested. Which IC50 [2] did it give?
**A.** Its IC50 is 32900 nM.

**Q.** For `O=C1/C(=C/c2ccccc2)CCc2cc(O)ccc21`, which IC50 [4] is on record?
**A.** Its IC50 is 115 nM.

**Q.** With `O=C(/C=C/c1cccc2c1OCO2)c1ccc(Cl)cc1` as the compound, how does the IC50 [5] read?
**A.** Its IC50 is less than 100 nM.

**Q.** How did the Ratio IC50 (Homo sapiens) turn out when `O=C1/C(=C/c2ccc(Cl)cc2)COc2ccccc21` was run?
**A.** The Ratio IC50 was greater than 641.

**Q.** Which IC50 [5] does the source give for `O=C(/C=C/c1cccc2c1OCO2)c1ccc(Br)cc1` here?
**A.** The IC50 was less than 100 nM.

**Q.** `O=C(/C=C/c1ccc(Br)cc1)c1ccc(-n2ccnc2)cc1` was tested. Which Ratio IC50 (Homo sapiens) did it give?
**A.** The Ratio IC50 was 3.3.

**Q.** What about the IC50 [1] of the same compound?
**A.** Its IC50 is 320 nM.

**Q.** `O=C(/C=C/c1ccc(F)cc1)c1ccc2c(c1)OCCO2` was tested. Which IC50 [3] did it give?
**A.** The IC50 was less than 100 nM.

**Q.** And the Ratio IC50 (Homo sapiens)?
**A.** The Ratio IC50 was greater than 1000.

**Q.** With `Cc1ccc(NC(=O)CCCCc2cn(Cc3ccc4oc(-c5ccccc5)cc(=O)c4c3)nn2)cc1` as the compound, how does the IC50 [2] read?
**A.** Its IC50 is 15600 nM.

**Q.** `CCOc1ccc(C(=O)/C=C/c2ccc([N+](=O)[O-])cc2)cc1` was tested. Which IC50 [1] did it give?
**A.** The IC50 was 210 nM.

**Q.** Which IC50 [3] does the source give for `COc1ccc2c(=O)cc(-n3ccc4ccccc43)oc2c1` here?
**A.** Its IC50 is 280 nM.

**Q.** What about the Ratio IC50 (Homo sapiens) of the same compound?
**A.** Its Ratio IC50 is greater than 300.

**Q.** Which IC50 [5] does the source give for `Cc1ccc(/C=C/C(=O)c2ccc3c(c2)OCCO3)cc1` here?
**A.** Its IC50 is 3.4 nM.

**Q.** How did the IC50 [1] turn out when `COc1ccc(C(=O)/C=C/c2ccc(ON=C(c3ccccc3)c3ccccc3)cc2)cc1` was run?
**A.** Its IC50 is less than 100 nM.

**Q.** With `CC/C(C)=N/Oc1ccc(/C=C/C(=O)c2ccc(F)cc2)cc1` as the compound, how does the Ratio IC50 (Homo sapiens) read?
**A.** Its Ratio IC50 is 621.

**Q.** And the IC50 [1]?
**A.** Its IC50 is 28 nM.

**Q.** For `O=C(CCCCc1cn(Cc2ccc3oc(-c4ccc(Cl)cc4)cc(=O)c3c2)nn1)Nc1ccccc1`, which IC50 [2] is on record?
**A.** The IC50 was 32900 nM.

**Q.** How did the IC50 [2] turn out when `Cc1ccc(NC(=O)CCc2cn(Cc3ccc4oc(-c5ccc(Cl)cc5)cc(=O)c4c3)nn2)cc1` was run?
**A.** The IC50 was 32900 nM.

**Q.** How did the IC50 [2] turn out when `Cc1ccc(NC(=O)CCCCc2cn(Cc3ccc4oc(-c5ccc(Cl)cc5)cc(=O)c4c3)nn2)cc1` was run?
**A.** The IC50 was 32900 nM.

**Q.** For `CCOc1ccc(C(=O)/C=C/c2ccc(N(C)C)cc2)cc1`, which IC50 [1] is on record?
**A.** Its IC50 is 210 nM.

**Q.** With `O=C(/C=C/c1ccc(C(F)(F)F)cc1)c1ccc(-n2ccnc2)cc1` as the compound, how does the IC50 [1] read?
**A.** Its IC50 is greater than 10000 nM.

**Q.** For `O=C(/C=C/c1ccc(ON=C2CCCCC2)cc1)c1ccc(F)cc1`, which IC50 [1] is on record?
**A.** Its IC50 is less than 50 nM.

**Q.** `Nc1ccc2c(c1)CC/C(=C\c1ccccc1)C2=O` was tested. Which IC50 [4] did it give?
**A.** The IC50 was 115 nM.

**Q.** What does the source list for `O=C1/C(=C/c2ccc(Cl)cc2)CCc2ccccc21`?
**A.** IC50 [4]: 995 nM; Ratio IC50 (Homo sapiens): > 105

**Q.** How did the IC50 [2] turn out when `O=C(NCc1cn(Cc2ccc3oc(-c4ccc(Cl)cc4)cc(=O)c3c2)nn1)c1ccc(Cl)cc1` was run?
**A.** Its IC50 is 32900 nM.

**Q.** For `O=C(CCCCc1cn(Cc2ccc3oc(-c4ccc(Cl)cc4)cc(=O)c3c2)nn1)Nc1ccc(F)cc1`, which IC50 [2] is on record?
**A.** Its IC50 is 32900 nM.

**Q.** With `COc1ccc(C(=O)/C=C/c2ccc(O/N=C3\CCc4ccccc43)cc2)cc1` as the compound, how does the IC50 [1] read?
**A.** The IC50 was less than 100 nM.

**Q.** With `Cc1ccc(C(=O)NCc2cn(Cc3ccc4oc(-c5ccc(Cl)cc5)cc(=O)c4c3)nn2)cc1` as the compound, how does the IC50 [2] read?
**A.** Its IC50 is 32900 nM.

**Q.** With `O=C(CCc1cn(Cc2ccc3oc(-c4ccc(Cl)cc4)cc(=O)c3c2)nn1)Nc1ccc(F)cc1` as the compound, how does the IC50 [2] read?
**A.** Its IC50 is 32900 nM.

**Q.** With `CCN(CC)C(=O)Oc1ccc2c(c1)O/C(=C\c1ccc(OCCN(C)C)cc1)C2=O` as the compound, how does the inhibition at 50 µM [6] read?
**A.** Its inhibition at 50 µM is less than 75%.

**Q.** Which IC50 [1] does the source give for `O=C(/C=C/c1cccc(F)c1)c1ccc(-n2ccnc2)cc1` here?
**A.** Its IC50 is greater than 10000 nM.

**Q.** With `O=C(CCc1cn(Cc2ccc3oc(-c4ccc(Cl)cc4)cc(=O)c3c2)nn1)Nc1ccc(Cl)cc1` as the compound, how does the IC50 [2] read?
**A.** Its IC50 is 32900 nM.
